According to patent publication US8586782B2, “Phenylacetic acid derivatives” (Novartis AG, priority 2006, dated 2013):

Assays:
COX-1 = molecular target: T1, COX-1 (Homo sapiens, UniProt P23219); experiment: COX-1 inhibition in human whole blood (A23187-stimulated TxB2 production); assay type: cell-based; details: TxB2 after A23187 50 μM 1 h, average where more than one assay, read-out: COX-1_Blood IC50 [μM] (Avg)
T1 construct: COX-1 is constitutively expressed in platelets; endogenous in cells; host or cells: heparinized human whole blood (platelets, A23187-stimulated)
Experimental: (§1) In vitro COX-1 and COX-2 inhibition is also determined in human whole blood where COX-1 is constitutively expressed in platelets and COX-2 expression is induced in mononuclear cells by treatment with lipopolysaccharide (LPS) (10 μg/mL). For this assay heparinized human blood is divided into two aliquots: one for measuring TxB2 production (a surrogate indicator of COX-1 activity) and a second for measuring PGE2 production (a surrogate for COX-2 activity). The blood samples are pretreated with test compounds for one hour before stimulation. Compounds are tested in a final concentration range from 0.1 nM to 300 μM using half log increases in concentrations. To measure inhibition of thromboxane B2 (TxB2) generation, A23187 (50 μM) is added, and the blood incubated for one hour. PGE2 production is measured after the addition of LPS (10 μg/mL) followed by overnight incubation. After incubation with A23187 or LPS the samples are centrifuged at 250×g for 10 minutes at 4° C. to collect serum. The amounts PGE2 and TxB2 present in the serum are measured using a chemiluminesence enzyme immunoassay from Assay Designs Inc. (Ann Arbor, Mich.). The levels of prostaglandin in each sample are normalized to the percent inhibition caused by each concentration of the test compound. The percent inhibition data for each donor is pooled and fitted to a 4-parameter logistic function using a regression.

COX-2 = molecular target: T2, COX-2 (Homo sapiens, UniProt P35354); experiment: COX-2 inhibition in human whole blood (LPS-induced PGE2 production); assay type: cell-based; details: PGE2 after LPS 10 μg/mL overnight, average where more than one assay, read-out: COX-2_Blood IC50 [μM] (Avg)
T2 construct: COX-2 expression is induced in mononuclear cells by treatment with lipopolysaccharide (LPS); endogenous in cells; host or cells: heparinized human whole blood (mononuclear cells, LPS-induced)
T2 sequence (P35354 18-604): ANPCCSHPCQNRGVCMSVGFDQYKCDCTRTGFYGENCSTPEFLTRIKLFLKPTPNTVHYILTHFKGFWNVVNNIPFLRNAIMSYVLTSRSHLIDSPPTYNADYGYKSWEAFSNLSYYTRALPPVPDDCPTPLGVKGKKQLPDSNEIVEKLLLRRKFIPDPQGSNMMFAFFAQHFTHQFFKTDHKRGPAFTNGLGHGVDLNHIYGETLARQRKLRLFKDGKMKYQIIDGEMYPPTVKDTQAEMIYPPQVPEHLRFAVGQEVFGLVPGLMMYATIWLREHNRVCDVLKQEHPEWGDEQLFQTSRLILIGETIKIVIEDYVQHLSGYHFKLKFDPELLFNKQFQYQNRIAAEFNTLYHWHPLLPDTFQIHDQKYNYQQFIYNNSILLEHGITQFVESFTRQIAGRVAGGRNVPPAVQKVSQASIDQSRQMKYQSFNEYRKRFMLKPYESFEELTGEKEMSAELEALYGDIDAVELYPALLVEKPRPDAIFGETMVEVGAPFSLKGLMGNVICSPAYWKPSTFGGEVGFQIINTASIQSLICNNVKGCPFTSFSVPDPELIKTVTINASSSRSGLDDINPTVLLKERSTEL
Experimental: as §1

T1 sequence (P23219 24-599): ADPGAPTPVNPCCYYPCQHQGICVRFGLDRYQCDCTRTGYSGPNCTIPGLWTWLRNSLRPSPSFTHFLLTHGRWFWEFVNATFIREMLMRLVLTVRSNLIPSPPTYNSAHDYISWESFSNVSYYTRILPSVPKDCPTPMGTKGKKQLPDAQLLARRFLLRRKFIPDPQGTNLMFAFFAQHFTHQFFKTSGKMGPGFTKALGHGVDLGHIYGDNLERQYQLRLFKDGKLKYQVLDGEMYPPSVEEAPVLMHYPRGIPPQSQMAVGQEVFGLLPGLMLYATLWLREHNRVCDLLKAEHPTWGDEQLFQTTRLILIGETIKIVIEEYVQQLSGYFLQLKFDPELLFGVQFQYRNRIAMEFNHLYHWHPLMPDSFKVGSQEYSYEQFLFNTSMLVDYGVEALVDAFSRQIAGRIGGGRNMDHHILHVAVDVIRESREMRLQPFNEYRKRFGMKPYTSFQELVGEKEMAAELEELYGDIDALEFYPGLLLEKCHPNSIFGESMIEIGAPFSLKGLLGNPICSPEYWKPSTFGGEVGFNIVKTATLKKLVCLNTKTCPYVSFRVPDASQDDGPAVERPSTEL

SMILES | IC50 (COX-1) | IC50 (COX-2)
CCc1ccc(Nc2ccc(C)c(C(F)(F)F)c2F)c(CC(=O)O)c1 [Example 5a, 5-Ethyl-2-(2′-fluoro-4′-methyl-3′-trifluoromethylanilino)phenylacetic acid] | 155 µM | 0.1 µM
CCc1c(Cl)ccc(Nc2ccc(C)cc2CC(=O)O)c1F [Example 5k, 5-Methyl-2-(2′-fluoro-4′-chloro-3′-ethylanilino)phenylacetic acid] | 183 µM | 0.165 µM
CCc1ccc(Nc2ccc(Cl)c(C(C)C)c2F)c(CC(=O)O)c1 [Example 5m, 5-Ethyl-2-(2′-fluoro-4′-chloro-3′-isopropylanilino)phenylacetic acid] | 127 µM | 0.17 µM

Next, values leading:

IC50 (COX-1) | IC50 (COX-2) | SMILES
126 µM | 0.073 µM | Cc1ccc(Nc2ccc(Cl)c(C)c2Cl)c(CC(=O)O)c1 [Example 5e, 5-Methyl-2-(2′,4′-dichloro-3′-methylanilino)phenylacetic acid]
129 µM | 0.295 µM | Cc1ccc(Nc2ccc(Cl)c(C)c2F)c(CC(=O)O)c1 [Example 5i, 5-Methyl-2-(2′-fluoro-4′-chloro-3′-methylanilino)phenylacetic acid]
